Data on five sequences can be found in article PMC8202855, “Identification of novel hepatitis B virus therapeutic vaccine candidates derived from polymerase protein” (Aging (Albany NY), 2021).

“Also recorded” adds a separate entry of the source.

The subject of one series is HepG2.2.15 cells. Description: In vitro cytotoxicity assay against HepG2.2.15 cells (LDH release). The class given is cell-based. The following applies: effector:target 20:1, 37° C, 12 hours, versus PBS-induced control, 3 independent experiments. On the procedure:
In order to determine the antiviral abilities of epitope-specific T-cells, we detect the cytotoxicity of epitope-specific T cells against HepG2.2.15 cell. […] The ratios of epitope-specific T-cells versus HepG2.2.15 cells were set to 5:1, 10:1, 20:1. The effector cells and target cells were incubated together in 96-well plates at 37° C for 12 hours, and each well was added to total volume of 200 ul. The cytotoxicity activity of epitope-specific T-cells was evaluated based on LDH release using a non-radio-active cytotoxicity assay kit (Promega, US). The percentage of lysis was calculated as formula: (experimental release- target cell spontaneous release- effector cell spontaneous release)/(target cell maximum release- target cell spontaneous release).
A general note: Release of lactate dehydrogenase indicates damage to the cell membrane.

For the next series, the system named is HBsAg. The settings on record: co-culture with HepG2.2.15 cells, effector:target 10:1, 72 hours, supernatant ELISA; versus PBS group; 3 independent experiments. In general terms: ELISA stands for enzyme-linked immunosorbent assay.
The subject of the next series is HBV-DNA. Briefly: HBV gene expression assay: HBV-DNA (real-time fluorescence quantitative PCR). The class given is cell-based, Hepatitis B virus. The following applies: co-culture with HepG2.2.15 cells, effector:target 10:1, 72 hours, supernatant quantitative PCR; versus PBS group; 3 independent experiments.
In another series the test system is T2 cells. Description: In vitro cytotoxicity assay against T2 cells (LDH release). The class given is cell-based. The settings on record: peptide-pulsed T2 cells 1×10^5/well, effector:target 10:1, 20:1, 40:1, 37° C, 5 hours, 3 independent experiments. The procedure:
T2 cell is (transporter associated with antigen processing, TAP) deficient cell line. When T2 cell is cultured with different epitopes, the HLA-A0201 molecule on surface of T2 cell will bind to different epitopes, the epitope-HLA-A0201 complex can be recognized by epitope-specific T cells and corresponding T2 cell will be lysed. In order to determine the cytotoxic activity of epitope-specific T cells, we measured LDH release based on the instructions of a non-radioactive cytotoxicity assay kit (Promega, USA). Epitope-specific T cells served as effector cells, and T2 cells loaded with or without each peptide served as target cells. The ratios of effector cells versus target cells were set to 10:1, 20:1 and 40:1. The effector cells were co-cultured with target cells (1×10^5/well) at 37° C for 5 hours, and LDH release was measured.

In series [1] the test system is epitope-specific T cells from PBMCs of healthy donors. Description: In vitro human IFN-γ ELISPOT assay of epitope-specific T cells. The settings on record: HLA-A0201-positive PBMCs of healthy donors cultured with peptide 50 μM and IL-2 100 U/ml, day 20; T cells 5x10^5/ml; versus PBS-induced control; 3 independent experiments. The class given is cell-based. The procedure:
In order to measure the ability of epitope-specific T cells to produce IFN-γ, the ELISPOT assay was performed according to the instructions of the kit (Invitrogen, Carlsbad, CA, USA). Epitope-specific T cells(5x10^5/ml) were added to plates. An automated ELISPOT plate reader was used to quantify IFN-γ release by counting the number of spots present.

The target of the next series is T1, HLA-A0201 molecule (Homo sapiens, UniProt P04439, D140Y/D185E/D98H/E176V/E277Q/G131W/G231S/I119V/I121R/I166T/I218V/L300P/L318F/N151K/N90K/P208A/P217A/Q86G/Q94H/R138H/R169H/T345S).
T1 construct: endogenous in cells; host or cells: T2 cells (TAP-deficient human cell line)
Description: Peptide binding assay on T2 cells (HLA-A0201, flow cytometry). The following applies: T2 cells 1×10^6/well, peptide 100 μM, 18 hours, 37° C; FITC anti-HLA-A2 mAb BB7.2, flow cytometry; FI = (MFI peptide - background MFI)/background MFI; FI > 1 = high affinity; one representative of 3 independent experiments. For orientation: A flow cytometer gives signals particle by particle.

Description for HBV-DNA: (§1) To validate the ability of epitopes to induce and stimulate the epitope-specific T cells, we used PBMCs from the blood of healthy donors. […] PBMCs were obtained through centrifugation at a Ficoll-Paque density gradient and suspended in RPMI-1640 medium supplemented with 10% fetal bovine serum (FBS), 100 U/ml penicillin and 100 μM streptomycin. PBMCs were stained by FITC-conjugated anti-HLA-A2 mAb and analyzed by flow cytometry. HLA-A0201-positive PBMCs were used for the expansion of epitope-specific T cells. PBMCs were cultured with each peptide (50 μM) and recombinant interleukin 2 (100 U/ml; Sigma, USA). Half of the culture medium was replaced with fresh RPMI-1640 medium every 3 or 4 days. […]
(§2) The antiviral abilities of epitopes were also determined by HBV gene expression assay. […] The HBsAg concentration was detected by enzyme-linked immunosorbent assay (ELISA) according to the manufacturer’s protocol (Shanghai Siic Kehua Biotech Co., Ltd.). And the HBV-DNA concentration was detected by real-time fluorescence quantitative PCR according to the manufacturer’s protocol (Yaneng Bioscience (Shenzhen) Co., Ltd.). […] The inhibition ratios of HBsAg and HBV-DNA were calculated as the formula: (1- experimental group/ control group)×100%.
Description for HBsAg: as §1, §2
Description for HLA-A0201 molecule: To analyze the binding affinity between epitopes and the HLA-A0201 molecule, we performed a peptide binding assay according to our previous study [18]. Briefly, T2 cells (1×10^6/well) were incubated with peptides (100 μM) in 24-well plates for 18 hours at 37° C. T2 cells without peptides served as a background control. After being washed with phosphate buffer saline (PBS) three times, cells were stained with FITC-conjugated anti-HLA-A2 mAb BB7.2 and analyzed using a BD AccuriC6 flow cytometer (Becton Dickinson, Mountain View, CA, USA). The mean fluorescence index (MFI) was recorded [43]. We calculated the fluorescence index (FI) as follows: FI = (MFI with individual peptides - background MFI)/(background MFI).

In the case of GLLGFAAPF, the “Cytotoxic activity of epitope-specific T cells against HepG2.2.15 cells (in words)” value in the series on HepG2.2.15 cells is listed as “higher cytotoxic activities against HepG2.2.15 cells compared to control group (P<0.05)”. For the same sequence, the “Inhibition of HBsAg expression by epitope-specific T cells (in words)” value in the series with HBsAg was “higher activities to inhibit the expression of HBsAg compared to the PBS group (P<0.05)”. Further, the “Elimination of HBV-DNA by epitope-specific T cells (in words)” value in the series on HBV-DNA was “higher abilities to eliminate HBV-DNA compared to the PBS group (P<0.05)”. Further, in the series with T2 cells, the “Cytotoxic activity of epitope-specific T cells toward T2 cells (in words)” value was “higher cytotoxic activity toward T2 cells compared to T cells stimulated by other epitopes”. Further, the “IFN-γ secretion of epitope-specific T cells (ELISPOT, in words)” value (from here on “IFN-γ secretion”) in series [1] is listed as “more IFN-γ secretion than was measured in control (P<0.05)”.
On to YVIGSWGTL, for which the “Fluorescence index (FI)” value at HLA-A0201 molecule worked out at 0.8953.
With HLYSHPIIL, the “Cytotoxic activity of epitope-specific T cells against HepG2.2.15 cells (in words)” value in the series on HepG2.2.15 cells was “higher cytotoxic activities against HepG2.2.15 cells compared to control group (P<0.05)”. In addition, the “Inhibition of HBsAg expression by epitope-specific T cells (in words)” value in the series on HBsAg is recorded as “higher activities to inhibit the expression of HBsAg compared to the PBS group (P<0.05)”. In addition, in the series on HBV-DNA, the “Elimination of HBV-DNA by epitope-specific T cells (in words)” value is on record as “higher abilities to eliminate HBV-DNA compared to the PBS group (P<0.05)”. Also, the “Cytotoxic activity of epitope-specific T cells toward T2 cells (in words)” value in the series with T2 cells is listed as “higher cytotoxic activity toward T2 cells compared to T cells stimulated by other epitopes”. Also, the “IFN-γ secretion” value in series [1] is listed as “more IFN-γ secretion than was measured in control (P<0.05)”.
With HLPDRVHFA, the “Fluorescence index (FI)” value at HLA-A0201 molecule amounted to 0.2920.
With RVTGGVFLV, the “Cytotoxic activity of epitope-specific T cells against HepG2.2.15 cells (in words)” value in the series on HepG2.2.15 cells is reported as “higher cytotoxic activities against HepG2.2.15 cells compared to control group (P<0.05); also recorded: obvious weaker than the other two epitopes”. Besides, in the series with T2 cells, the “Cytotoxic activity of epitope-specific T cells toward T2 cells (in words)” value is recorded as “lesser ability to induce epitope-specific T cells”. For the same sequence, the “IFN-γ secretion” value in series [1] was “lesser ability to induce epitope-specific T cells”.
